Measurements as given in PMC12136037, “Type II kinase inhibitors that target Parkinson’s disease–associated LRRK2” (Science Advances, 2025).

Key:
Test in all cases: DSF 100 kinase selectivity screen;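 note: compound tested at 20 µM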
Type in all cases: binding
[1] = molecular target: T1, ~100 representative kinases (Homo sapiens, UniProt Q2M2I8); settings: Protein AAK1; average of three replicates
T1 construct: Recombinant protein kinase domains with a concentration of 2 μM
Outline: (§1)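 Each kinase domain, at 2 μM, is mixed with 20 μM test compound and SYPRO Orange in Hepes (20 mM, pH 7.5) with 500 mM NaCl. Temperature is then raised at 3°C/min and fluorescence-monitored unfolding yields the melting temperature change, ΔTm in degrees Celsius.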

[2] = molecular target: T2, ~100 representative kinases (Homo sapiens, UniProt Q8IU85); settings: Protein CAMK1D; average of three replicates
T2 construct: Recombinant protein kinase domains with a concentration of 2 μM
T2 sequence (Q8IU85 whole entry, the tested form may be a part): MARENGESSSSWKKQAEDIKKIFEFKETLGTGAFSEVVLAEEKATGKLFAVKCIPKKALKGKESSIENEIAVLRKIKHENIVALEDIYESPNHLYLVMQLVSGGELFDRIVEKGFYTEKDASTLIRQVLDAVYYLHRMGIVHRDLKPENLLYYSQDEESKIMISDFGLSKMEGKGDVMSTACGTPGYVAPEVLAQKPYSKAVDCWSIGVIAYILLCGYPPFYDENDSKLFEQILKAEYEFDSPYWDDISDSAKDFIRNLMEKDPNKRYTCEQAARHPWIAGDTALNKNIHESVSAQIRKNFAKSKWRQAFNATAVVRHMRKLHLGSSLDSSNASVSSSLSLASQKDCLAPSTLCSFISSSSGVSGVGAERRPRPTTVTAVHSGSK
Outline: as §1

[3] = molecular target: T3, ~100 representative kinases (Homo sapiens, UniProt Q14680); settings: protein MELK; average of three replicates
T3 construct: Recombinant protein kinase domains with a concentration of 2 μM
T3 sequence (Q14680 whole entry, the tested form may be a part): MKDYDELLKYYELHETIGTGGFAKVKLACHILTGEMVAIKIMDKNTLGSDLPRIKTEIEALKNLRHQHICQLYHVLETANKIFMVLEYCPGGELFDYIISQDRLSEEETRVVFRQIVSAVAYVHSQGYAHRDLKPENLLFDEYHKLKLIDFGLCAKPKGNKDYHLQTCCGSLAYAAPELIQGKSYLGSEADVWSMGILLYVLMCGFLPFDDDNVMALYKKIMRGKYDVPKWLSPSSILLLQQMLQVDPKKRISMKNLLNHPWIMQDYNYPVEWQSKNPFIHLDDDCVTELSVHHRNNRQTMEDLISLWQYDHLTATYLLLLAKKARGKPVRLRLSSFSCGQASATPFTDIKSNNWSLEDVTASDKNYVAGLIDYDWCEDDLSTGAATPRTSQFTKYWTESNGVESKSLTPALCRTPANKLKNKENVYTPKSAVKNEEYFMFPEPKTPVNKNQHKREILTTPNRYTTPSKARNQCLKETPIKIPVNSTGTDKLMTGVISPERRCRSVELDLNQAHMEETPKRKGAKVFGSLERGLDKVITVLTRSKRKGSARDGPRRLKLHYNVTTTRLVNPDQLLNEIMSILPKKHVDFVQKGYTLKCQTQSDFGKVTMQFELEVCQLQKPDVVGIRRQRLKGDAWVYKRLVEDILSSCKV
Outline: as §1

[4] = molecular target: T4, ~100 representative kinases (Homo sapiens, UniProt Q13873); settings: Protein BMPR2; average of three replicates
T4 construct: Recombinant protein kinase domains with a concentration of 2 μM
T4 sequence (Q13873 27-1038): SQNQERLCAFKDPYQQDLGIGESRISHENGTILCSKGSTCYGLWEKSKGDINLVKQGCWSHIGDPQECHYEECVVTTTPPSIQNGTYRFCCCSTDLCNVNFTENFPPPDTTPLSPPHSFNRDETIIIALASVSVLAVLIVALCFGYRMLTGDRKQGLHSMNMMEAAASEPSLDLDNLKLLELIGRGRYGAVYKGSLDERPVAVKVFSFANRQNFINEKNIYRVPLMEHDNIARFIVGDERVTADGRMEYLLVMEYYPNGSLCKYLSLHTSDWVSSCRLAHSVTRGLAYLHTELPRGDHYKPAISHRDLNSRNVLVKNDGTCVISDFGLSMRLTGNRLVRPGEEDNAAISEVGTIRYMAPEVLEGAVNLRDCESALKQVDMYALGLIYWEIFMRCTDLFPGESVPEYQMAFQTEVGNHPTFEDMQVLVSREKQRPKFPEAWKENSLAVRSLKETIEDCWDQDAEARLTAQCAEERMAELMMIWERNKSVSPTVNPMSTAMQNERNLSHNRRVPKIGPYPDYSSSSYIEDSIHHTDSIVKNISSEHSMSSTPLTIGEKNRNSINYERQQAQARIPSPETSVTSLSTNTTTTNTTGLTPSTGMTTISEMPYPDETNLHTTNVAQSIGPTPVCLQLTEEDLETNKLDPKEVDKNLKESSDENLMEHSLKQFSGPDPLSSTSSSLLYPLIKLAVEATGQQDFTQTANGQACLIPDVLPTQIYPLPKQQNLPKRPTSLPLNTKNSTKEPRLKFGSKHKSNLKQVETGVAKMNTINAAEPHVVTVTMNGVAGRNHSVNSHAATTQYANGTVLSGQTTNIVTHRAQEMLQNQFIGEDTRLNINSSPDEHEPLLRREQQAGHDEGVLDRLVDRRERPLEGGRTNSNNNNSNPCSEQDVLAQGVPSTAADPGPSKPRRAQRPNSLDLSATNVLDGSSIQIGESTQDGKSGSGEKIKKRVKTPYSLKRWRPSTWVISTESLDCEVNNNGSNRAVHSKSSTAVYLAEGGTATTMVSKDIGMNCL
Outline: as §1

[5] = molecular target: T5, ~100 representative kinases (Homo sapiens, UniProt O14976); settings: protein GAK; average of three replicates
T5 construct: Recombinant protein kinase domains with a concentration of 2 μM
T5 sequence (O14976 1-1311): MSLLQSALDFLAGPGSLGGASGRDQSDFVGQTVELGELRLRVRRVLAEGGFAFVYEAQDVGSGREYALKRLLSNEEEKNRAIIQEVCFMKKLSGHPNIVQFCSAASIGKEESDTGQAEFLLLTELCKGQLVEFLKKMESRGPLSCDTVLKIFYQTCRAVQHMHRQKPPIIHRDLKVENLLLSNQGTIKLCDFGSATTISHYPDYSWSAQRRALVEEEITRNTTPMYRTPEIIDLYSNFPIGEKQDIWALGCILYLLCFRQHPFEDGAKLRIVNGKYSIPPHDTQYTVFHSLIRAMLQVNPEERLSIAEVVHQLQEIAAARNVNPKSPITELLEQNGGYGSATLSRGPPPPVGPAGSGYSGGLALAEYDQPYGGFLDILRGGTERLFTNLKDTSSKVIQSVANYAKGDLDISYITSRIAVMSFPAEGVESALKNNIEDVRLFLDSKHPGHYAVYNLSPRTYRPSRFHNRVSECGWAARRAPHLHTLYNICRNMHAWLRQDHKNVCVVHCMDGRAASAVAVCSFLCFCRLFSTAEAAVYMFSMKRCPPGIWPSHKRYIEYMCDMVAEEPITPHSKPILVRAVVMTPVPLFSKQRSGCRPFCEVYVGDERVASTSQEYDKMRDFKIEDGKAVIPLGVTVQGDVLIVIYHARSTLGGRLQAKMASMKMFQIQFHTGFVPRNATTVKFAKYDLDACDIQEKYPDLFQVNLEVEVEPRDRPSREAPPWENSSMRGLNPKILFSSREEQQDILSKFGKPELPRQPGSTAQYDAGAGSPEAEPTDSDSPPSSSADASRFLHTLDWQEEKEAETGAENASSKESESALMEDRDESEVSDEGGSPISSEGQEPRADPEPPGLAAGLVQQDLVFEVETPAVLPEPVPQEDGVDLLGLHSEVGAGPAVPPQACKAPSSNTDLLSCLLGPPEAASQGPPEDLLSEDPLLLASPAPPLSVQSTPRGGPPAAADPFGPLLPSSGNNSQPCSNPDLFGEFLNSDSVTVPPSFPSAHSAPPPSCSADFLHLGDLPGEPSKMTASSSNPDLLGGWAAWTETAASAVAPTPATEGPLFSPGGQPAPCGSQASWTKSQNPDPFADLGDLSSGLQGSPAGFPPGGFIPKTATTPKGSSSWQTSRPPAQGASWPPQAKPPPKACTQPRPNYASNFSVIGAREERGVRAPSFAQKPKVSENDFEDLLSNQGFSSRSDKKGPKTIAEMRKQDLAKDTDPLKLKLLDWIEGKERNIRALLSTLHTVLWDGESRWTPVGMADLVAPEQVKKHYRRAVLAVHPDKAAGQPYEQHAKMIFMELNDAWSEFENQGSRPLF
Outline: as §1

[6] = molecular target: T6, ~100 representative kinases (Homo sapiens, UniProt P48730); settings: Protein CSNK1D; average of three replicates
T6 construct: Recombinant protein kinase domains with a concentration of 2 μM
T6 sequence (P48730 whole entry, the tested form may be a part): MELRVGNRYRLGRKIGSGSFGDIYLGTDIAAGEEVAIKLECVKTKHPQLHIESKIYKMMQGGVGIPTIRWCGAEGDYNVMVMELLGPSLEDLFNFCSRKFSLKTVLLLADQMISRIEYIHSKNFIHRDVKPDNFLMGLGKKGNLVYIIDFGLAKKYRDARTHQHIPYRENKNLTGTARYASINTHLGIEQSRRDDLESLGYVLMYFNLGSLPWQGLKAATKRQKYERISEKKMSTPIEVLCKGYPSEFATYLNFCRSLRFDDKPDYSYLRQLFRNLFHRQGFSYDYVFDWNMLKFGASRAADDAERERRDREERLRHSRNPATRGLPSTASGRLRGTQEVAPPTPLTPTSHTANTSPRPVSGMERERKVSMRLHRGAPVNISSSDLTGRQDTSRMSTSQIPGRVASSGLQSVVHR
Outline: as §1

[7] = molecular target: T7, ~100 representative kinases (Homo sapiens, UniProt Q9UPE1); settings: Protein SRPK3; DSF; average of three replicates
T7 construct: Recombinant protein kinase domains with a concentration of 2 μM
T7 sequence (Q9UPE1 whole entry, the tested form may be a part): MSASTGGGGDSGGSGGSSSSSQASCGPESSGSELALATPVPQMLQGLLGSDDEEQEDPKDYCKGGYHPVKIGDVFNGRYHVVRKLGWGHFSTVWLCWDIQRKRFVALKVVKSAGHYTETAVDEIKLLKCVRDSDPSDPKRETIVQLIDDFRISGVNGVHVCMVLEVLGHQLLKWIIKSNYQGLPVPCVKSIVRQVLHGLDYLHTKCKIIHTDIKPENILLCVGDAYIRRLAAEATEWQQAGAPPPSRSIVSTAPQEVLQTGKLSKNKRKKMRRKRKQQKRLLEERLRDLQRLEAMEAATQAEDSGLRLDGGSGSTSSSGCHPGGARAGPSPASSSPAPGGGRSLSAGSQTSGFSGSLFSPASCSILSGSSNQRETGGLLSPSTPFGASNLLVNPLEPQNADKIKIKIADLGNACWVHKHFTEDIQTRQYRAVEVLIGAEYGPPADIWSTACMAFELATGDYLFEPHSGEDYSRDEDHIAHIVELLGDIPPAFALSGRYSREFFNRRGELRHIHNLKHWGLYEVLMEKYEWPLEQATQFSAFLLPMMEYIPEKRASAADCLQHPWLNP
Outline: as §1

[8] = molecular target: T8, ~100 representative kinases (Homo sapiens, UniProt P45983); settings: protein MAPK8; average of three replicates
T8 construct: Recombinant protein kinase domains with a concentration of 2 μM
T8 sequence (P45983 whole entry, the tested form may be a part): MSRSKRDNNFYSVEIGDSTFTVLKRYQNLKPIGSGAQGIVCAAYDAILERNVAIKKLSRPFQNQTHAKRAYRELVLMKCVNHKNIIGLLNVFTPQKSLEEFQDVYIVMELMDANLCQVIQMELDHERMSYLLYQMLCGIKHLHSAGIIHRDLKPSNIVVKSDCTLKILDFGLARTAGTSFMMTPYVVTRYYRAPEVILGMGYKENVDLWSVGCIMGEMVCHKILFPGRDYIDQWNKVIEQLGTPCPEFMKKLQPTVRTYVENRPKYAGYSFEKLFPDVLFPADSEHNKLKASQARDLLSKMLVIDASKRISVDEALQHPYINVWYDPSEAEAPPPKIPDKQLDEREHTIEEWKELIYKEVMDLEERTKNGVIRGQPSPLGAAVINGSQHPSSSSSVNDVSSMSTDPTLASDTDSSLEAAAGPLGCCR
Outline: as §1

T1 sequence (Q2M2I8 whole entry, the tested form may be a part): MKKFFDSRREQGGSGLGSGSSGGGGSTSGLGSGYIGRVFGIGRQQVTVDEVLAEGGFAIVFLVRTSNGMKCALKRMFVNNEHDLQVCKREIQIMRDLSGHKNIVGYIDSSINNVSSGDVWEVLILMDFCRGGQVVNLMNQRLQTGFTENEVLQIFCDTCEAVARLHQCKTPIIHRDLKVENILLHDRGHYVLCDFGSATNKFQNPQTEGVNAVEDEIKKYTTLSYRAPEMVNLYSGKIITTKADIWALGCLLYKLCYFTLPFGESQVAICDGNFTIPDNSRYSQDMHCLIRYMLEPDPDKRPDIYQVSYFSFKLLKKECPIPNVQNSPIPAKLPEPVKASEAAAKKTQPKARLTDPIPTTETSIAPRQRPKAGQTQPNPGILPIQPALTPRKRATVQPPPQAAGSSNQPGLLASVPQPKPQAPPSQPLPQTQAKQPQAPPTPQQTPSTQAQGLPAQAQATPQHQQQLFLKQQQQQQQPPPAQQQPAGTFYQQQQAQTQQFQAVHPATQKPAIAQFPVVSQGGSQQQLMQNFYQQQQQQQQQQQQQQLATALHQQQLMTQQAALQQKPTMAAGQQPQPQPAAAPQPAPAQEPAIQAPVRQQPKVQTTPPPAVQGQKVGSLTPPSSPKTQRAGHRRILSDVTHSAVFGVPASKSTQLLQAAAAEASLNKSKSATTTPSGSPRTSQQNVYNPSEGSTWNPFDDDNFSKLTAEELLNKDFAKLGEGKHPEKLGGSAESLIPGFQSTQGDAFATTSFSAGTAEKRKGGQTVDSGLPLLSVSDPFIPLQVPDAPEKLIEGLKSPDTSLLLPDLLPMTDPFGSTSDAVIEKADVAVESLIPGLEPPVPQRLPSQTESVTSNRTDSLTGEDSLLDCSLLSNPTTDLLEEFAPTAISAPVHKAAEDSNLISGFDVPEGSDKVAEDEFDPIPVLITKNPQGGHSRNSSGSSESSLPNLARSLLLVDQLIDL

`Cc1ccc(-n2nc(C(C)(C)C)cc2NC(=O)Nc2cccc(-c3c[nH]c4ncnc(N5CCOCC5)c34)c2)cc1` [Compound 29] showed a dTm [1] of 5.32 K, a dTm [2] of 1.72 K and a dTm [3] of 6.41 K. For the same compound, the dTm [4] was 0.97 K, the dTm [5] was 0.00 K and the dTm [6] was 0.95 K. The dTm [7] was 6.09 K and the dTm [8] was 4.13 K.
`O=C(Nc1cccc(-c2c[nH]c3ncnc(N4CCOCC4)c23)c1)C1(C(=O)Nc2ccc(F)c(Br)c2)CC1` [Compound 19] gave a dTm [1] of 3.23 K, a dTm [2] of 3.06 K and a dTm [3] of 17.38 K. For the same compound, the dTm [4] was -0.62 K, the dTm [5] was 1.18 K and the dTm [6] was 0.43 K. It also gave a dTm [7] of 6.39 K and a dTm [8] of 3.53 K.
`O=C(Nc1cccc(-c2c[nH]c3ncnc(N4CCOCC4)c23)c1)C1(C(=O)Nc2ccc(F)c(Cl)c2)CC1` [Compound 18] gave a dTm [1] of 4.45 K, a dTm [2] of 1.04 K and a dTm [3] of 13.04 K. For the same compound, the dTm [4] was 1.13 K, the dTm [5] was 1.28 K and the dTm [6] was 3.14 K. For the same compound, the dTm [7] was 7.93 K and the dTm [8] was 3.23 K.
`COc1cc(S(C)(=O)=O)ccc1Nc1nc(N(C)C)c2c(Cl)c[nH]c2n1` [Compound 37] was tested, and the dTm [1] was 0.85 K, the dTm [2] was 0.49 K and the dTm [3] was 0.45 K. The dTm [4] was -0.0179 K, the dTm [5] was 3.76 K and the dTm [6] was 2.29 K. It also gave a dTm [7] of 0.46 K and a dTm [8] of 3.54 K.
In the case of `O=C(Nc1cccc(-c2c[nH]c3ncnc(N4CCOCC4)c23)c1)C1(C(=O)Nc2cc(Br)c(F)cc2F)CC1` [Compound 25], the dTm [1] is reported as -2.54 K, the dTm [2] is reported as 3.75 K and the dTm [3] is reported as 14.53 K. It also gave a dTm [4] of 0.20 K, a dTm [5] of 0.71 K and a dTm [6] of -0.29 K. It also gave a dTm [7] of 3.28 K and a dTm [8] of 0.77 K.
For `O=C(Nc1cccc(-c2c[nH]c3ncnc(N4CCOCC4)c23)c1)c1cccn(-c2ccc(F)cc2)c1=O` [Compound 4], the dTm [1] was 1.95 K, the dTm [2] was -1.98 K and the dTm [3] was 12.90 K. It also gave a dTm [4] of 0.82 K, a dTm [5] of 0.0652 K and a dTm [6] of 5.34 K. For the same compound, the dTm [7] was 5.16 K and the dTm [8] was 3.47 K.
In the case of `O=C(Nc1ccc(F)cc1)C1(C(=O)Nc2cccc(-c3c[nH]c4ncnc(N5CCOCC5)c34)c2)CC1` [Compound 2], the dTm [1] is reported as 3.27 K, the dTm [2] is reported as -1.26 K and the dTm [3] is reported as 14.87 K. For the same compound, the dTm [4] was 0.92 K, the dTm [5] was 0.23 K and the dTm [6] was 2.09 K. The dTm [7] was 6.73 K and the dTm [8] was 1.17 K.
For `Cc1cc(NC(=O)C2(C(=O)Nc3ccc(F)cc3)CC2)cc(-c2c[nH]c3ncnc(N4CCOCC4)c23)c1` [Compound 6], the dTm [1] was 0.52 K, the dTm [2] was 1.65 K and the dTm [3] was 11.24 K. The dTm [4] was 0.52 K, the dTm [5] was 0.83 K and the dTm [6] was 1.10 K. For the same compound, the dTm [7] was 4.54 K and the dTm [8] was 2.19 K.
In the case of `O=C(Nc1cccc(-c2c[nH]c3ncnc(N4CCOCC4)c23)c1)C1(C(=O)Nc2ccc(F)c(Br)c2F)CC1` [Compound 26], the dTm [1] is reported as -0.08 K, the dTm [2] is reported as 2.09 K and the dTm [3] is reported as 13.99 K. The dTm [4] was 0.05 K, the dTm [5] was 0.91 K and the dTm [6] was 0.95 K. It also gave a dTm [7] of 2.55 K and a dTm [8] of 2.06 K.
Work on `Cc1cc(F)ccc1NC(=O)C1(C(=O)Nc2cccc(-c3c[nH]c4ncnc(N5CCOCC5)c34)c2)CC1` [Compound 24] yielded a dTm [1] of 3.04 K, a dTm [2] of -2.03 K and a dTm [3] of 12.59 K. The dTm [4] was 0.57 K, the dTm [5] was 0.84 K and the dTm [6] was 1.47 K. The dTm [7] was 1.90 K and the dTm [8] was 2.35 K.
Work on `CCSc1nc(NC)c2c(-c3cccc(NC(=O)Nc4cc(C(C)(C)C)nn4-c4ccc(C)cc4)c3)c[nH]c2n1` [Compound 32] yielded a dTm [1] of 0.08 K, a dTm [2] of 0.45 K and a dTm [3] of 1.19 K. For the same compound, the dTm [4] was 0.45 K, the dTm [5] was -1.07 K and the dTm [6] was 0.85 K. The dTm [7] was 1.35 K and the dTm [8] was 4.04 K.
`O=C(Nc1cccc(-c2c[nH]c3ncnc(N4CCOCC4)c23)c1)C1(C(=O)Nc2cccc3c2CCC3)CC1` [Compound 11] was tested, and the dTm [1] was -0.63 K, the dTm [2] was 1.59 K and the dTm [3] was 10.76 K. For the same compound, the dTm [4] was 0.44 K, the dTm [5] was -0.59 K and the dTm [6] was 1.21 K. For the same compound, the dTm [7] was 3.94 K and the dTm [8] was 2.36 K.
Work on `CCc1ccc(NC(=O)C2(C(=O)Nc3cccc(-c4c[nH]c5ncnc(N6CCOCC6)c45)c3)CC2)cc1` [Compound 15] yielded a dTm [1] of 2.03 K, a dTm [2] of -1.11 K and a dTm [3] of 6.77 K. For the same compound, the dTm [4] was 0.80 K, the dTm [5] was 0.09 K and the dTm [6] was 1.30 K. It also gave a dTm [7] of 3.89 K and a dTm [8] of 1.56 K.
In the case of `COc1ccc(NC(=O)C2(C(=O)Nc3cccc(-c4c[nH]c5ncnc(N6CCOCC6)c45)c3)CC2)cc1` [Compound 16], the dTm [1] is reported as 1.75 K, the dTm [2] is reported as -1.41 K and the dTm [3] is reported as 8.41 K. For the same compound, the dTm [4] was 0.48 K, the dTm [5] was 0.0654 K and the dTm [6] was 0.92 K. It also gave a dTm [7] of 2.74 K and a dTm [8] of 0.26 K.
For `COc1cc(NC(=O)C2(C(=O)Nc3cccc(-c4c[nH]c5ncnc(N6CCOCC6)c45)c3)CC2)ccc1F` [Compound 21], the dTm [1] was 4.69 K, the dTm [2] was -0.74 K and the dTm [3] was 16.69 K. It also gave a dTm [4] of 0.78 K, a dTm [5] of 0.54 K and a dTm [6] of 3.13 K. The dTm [7] was 6.98 K and the dTm [8] was 1.81 K.
